Where “and” joins values, the source holds several entries; their conditions need not be identical. Equal values may be shown once. Read-outs that look alike come from different tables or passages of the source.
Biological target: Nav1.7 sodium channels (human SCN9A gene) (Homo sapiens (Human), UniProt Q15858)
Experiment: Automated patch clamp (IonWorks Barracuda) of Nav1.7 stably expressed in CHO cells
Format: cell-based
Experimental: The potencies of the compounds provided herein to block specific Na+ channels was measured using automated patch clamp electrophysiologically of Nav1.7 sodium channels (human SCN9A gene) stably expressed in CHO cells using the IonWorks™ Barracuda system. Currents were measured from the whole cell patch configuration. From a holding potential of −90 mV, membranes were subjected to a 200 ms pre-pulse to −120 mV, then pulsed to 0 mV to measure blockade of the tonic (resting) state. Inactivated state block was elicited by repolarization to −100 mV (20 ms pulse duration), followed by depolarization to 0 mV (20 ms pulse duration). Peak inward Na+ currents were measured in the presence of vehicle or various concentrations of the test compound to determine the percent block of current. Concentration-response relationships were used to calculate IC50 values for the illustrative compounds.

[1] = inactivated state block, CHO cells, read-out: Inactivated state IC50
[2] = tonic (resting) state block, CHO cells, read-out: Tonic state IC50
[3] = read-out: Inactivated state IC50

Sequence of Nav1.7 sodium channels (human SCN9A gene) (Q15858 whole entry): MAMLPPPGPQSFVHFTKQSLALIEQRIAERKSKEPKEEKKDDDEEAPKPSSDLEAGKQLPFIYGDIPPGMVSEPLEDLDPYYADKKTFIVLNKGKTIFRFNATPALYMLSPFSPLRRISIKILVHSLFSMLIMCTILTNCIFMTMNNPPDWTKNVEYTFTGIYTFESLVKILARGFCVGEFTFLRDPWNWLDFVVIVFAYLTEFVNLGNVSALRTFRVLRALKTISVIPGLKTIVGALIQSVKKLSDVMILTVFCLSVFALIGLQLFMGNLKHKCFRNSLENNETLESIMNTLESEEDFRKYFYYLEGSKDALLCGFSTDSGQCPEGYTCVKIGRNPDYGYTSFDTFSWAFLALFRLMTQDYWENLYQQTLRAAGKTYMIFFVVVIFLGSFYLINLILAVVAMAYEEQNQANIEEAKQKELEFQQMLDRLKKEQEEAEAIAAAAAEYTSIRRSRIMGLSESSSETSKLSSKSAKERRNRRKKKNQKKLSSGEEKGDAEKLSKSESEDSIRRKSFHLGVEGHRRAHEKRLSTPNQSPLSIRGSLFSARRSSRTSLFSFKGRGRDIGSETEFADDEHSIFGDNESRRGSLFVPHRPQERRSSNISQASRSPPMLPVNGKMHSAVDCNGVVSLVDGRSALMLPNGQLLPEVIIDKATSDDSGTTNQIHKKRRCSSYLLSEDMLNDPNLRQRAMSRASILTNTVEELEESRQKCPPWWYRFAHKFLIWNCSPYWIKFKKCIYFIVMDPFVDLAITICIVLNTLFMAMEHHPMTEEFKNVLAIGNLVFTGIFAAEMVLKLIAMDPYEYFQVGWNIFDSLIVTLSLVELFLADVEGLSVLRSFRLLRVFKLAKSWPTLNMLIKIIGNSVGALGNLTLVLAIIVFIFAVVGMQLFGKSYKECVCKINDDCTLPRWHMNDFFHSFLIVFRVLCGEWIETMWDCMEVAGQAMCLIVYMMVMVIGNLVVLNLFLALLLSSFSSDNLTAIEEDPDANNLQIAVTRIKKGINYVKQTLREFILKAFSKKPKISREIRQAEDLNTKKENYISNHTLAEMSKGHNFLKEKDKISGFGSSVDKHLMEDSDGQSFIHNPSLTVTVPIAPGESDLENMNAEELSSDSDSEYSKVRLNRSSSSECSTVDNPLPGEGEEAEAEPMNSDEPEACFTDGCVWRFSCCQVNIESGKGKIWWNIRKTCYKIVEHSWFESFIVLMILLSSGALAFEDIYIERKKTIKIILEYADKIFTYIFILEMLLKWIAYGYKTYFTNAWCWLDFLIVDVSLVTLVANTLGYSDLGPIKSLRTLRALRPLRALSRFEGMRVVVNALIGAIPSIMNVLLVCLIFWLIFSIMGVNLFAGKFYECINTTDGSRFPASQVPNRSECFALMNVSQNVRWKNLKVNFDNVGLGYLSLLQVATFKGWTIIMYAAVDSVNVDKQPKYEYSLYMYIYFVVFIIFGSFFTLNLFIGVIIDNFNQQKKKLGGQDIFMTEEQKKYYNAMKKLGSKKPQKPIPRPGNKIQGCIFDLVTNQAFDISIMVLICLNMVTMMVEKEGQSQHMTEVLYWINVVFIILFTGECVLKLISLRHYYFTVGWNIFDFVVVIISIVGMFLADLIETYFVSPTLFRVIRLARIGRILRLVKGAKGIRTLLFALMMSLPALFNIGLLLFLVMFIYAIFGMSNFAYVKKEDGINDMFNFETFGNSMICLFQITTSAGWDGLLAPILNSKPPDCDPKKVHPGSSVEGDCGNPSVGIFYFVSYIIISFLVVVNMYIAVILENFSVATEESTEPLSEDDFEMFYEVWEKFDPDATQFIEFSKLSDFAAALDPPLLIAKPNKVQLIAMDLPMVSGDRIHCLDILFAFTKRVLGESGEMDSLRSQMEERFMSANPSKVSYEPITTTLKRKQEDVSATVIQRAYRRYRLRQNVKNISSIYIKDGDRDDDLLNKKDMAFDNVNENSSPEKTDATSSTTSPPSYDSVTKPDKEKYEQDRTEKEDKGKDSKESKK

Row | IC50 [1] | IC50 [2] | Structure (SMILES) | IC50 [3] | IC50 (read-out: Tonic state IC50)
1 | < 50 µM | > 200 µM | CC(C)OCCOCCOCCNc1nnc(-c2cccc(Cl)c2Cl)c(N)n1 [Compound 209, 6-(2,3-dichlorophenyl)-N3-(2-(2-(2-isopropoxyethoxy)ethoxy)ethyl)-1,2,4-triazine-3,5-diamine] |  | 
2 | > 300 µM | > 200 µM | Nc1nc(N2CCNC[C@H]2CO)nnc1-c1cccc(Cl)c1Cl [Compound 135] |  | 
3 | 244 µM | > 200 µM | CN(CCOCCNc1cnc(-c2cccc(Cl)c2Cl)c(N)n1)CC(N)=O [Compound 191, 2-((2-(2-((6-amino-5-(2,3-dichlorophenyl)pyrazin-2-yl)amino)ethoxy)ethyl)-(methyl)amino)acetamide] |  | 
4 | < 50 µM | > 200 µM | COC(=O)COCCOCCNc1nnc(-c2cccc(Cl)c2Cl)c(N)n1 [Compound 197, methyl 2-(2-(2-((5-amino-6-(2,3-dichlorophenyl)-1,2,4-triazin-3-yl)amino)ethoxy)ethoxy)acetate] |  | 
5 | > 300 µM | > 200 µM | COCCOCC(=O)NCC(O)CNc1nnc(-c2cccc(Cl)c2Cl)c(N)n1 (stereo not drawn) [Compound 196, N-(3-((5-amino-6-(2,3-dichlorophenyl)-1,2,4-triazin-3-yl)amino)-2-hydroxypropyl)-2-(2-methoxyethoxy)acetamide] |  | 
6 | > 300 µM and 225 µM | > 200 µM | COC[C@@H](O)CN1CCN(c2nnc(-c3cccc(Cl)c3Cl)c(N)n2)C[C@H]1CO [Compound 134, (S)-1-((S)-4-(5-amino-6-(2,3-dichlorophenyl)-1,2,4-triazin-3-yl)-2-(hydroxymethyl)piperazin-1-yl)-3-methoxypropan-2-ol] |  | 
7 | > 300 µM | > 200 µM | COCCOCCOCC(=O)N1CCC(Nc2nnc(-c3cccc(Cl)c3Cl)c(N)n2)CC1 [Compound 107, 3-N-(4′-N-mPEG2-CM piperidinyl) lamotrigine] |  | 
8 |  |  | CN(CCO)c1nnc(-c2cccc(Cl)c2Cl)c(N)n1 [Compound 185, 2-((5-amino-6-(2,3-dichlorophenyl)-1,2,4-triazin-3-yl)(methyl)amino)ethanol] | 176 µM | > 200 µM
9 |  |  | NC(=O)CNCCOCCNc1nnc(-c2cccc(Cl)c2Cl)c(N)n1 [Compound 194, 2-((2-(2-((5-amino-6-(2,3-dichlorophenyl)-1,2,4-triazin-3-yl)amino)ethoxy)ethyl)amino)acetamide] | > 300 µM | > 200 µM
10 | < 50 µM | 87.9 µM | CC(C)(C)OC(=O)COCCN1CCN(c2nnc(-c3cccc(Cl)c3Cl)c(N)n2)CC1 [Compound 203, tert-butyl 2-(2-(4-(5-amino-6-(2,3-dichlorophenyl)-1,2,4-triazin-3-yl)piperazin-1-yl)ethoxy)acetate] |  | 
11 | > 300 µM | > 200 µM | COCCOCCOCC(=O)N1CCN(c2nnc(-c3cccc(Cl)c3Cl)c(N)n2)CC1 [Compound 105, 3-N-mPEG2-CM-piperazinyl lamotrigine] |  | 
12 | 273 µM | > 200 µM | COCCOCC(=O)N(C)CCN(C)c1nnc(-c2cccc(Cl)c2Cl)c(N)n1 [Compound 190, N-(2-((5-amino-6-(2,3-dichlorophenyl)-1,2,4-triazin-3-yl)(methyl)amino)ethyl)-2-(2-methoxyethoxy)-N-methylacetamide] |  | 
13 | < 50 µM | 70 µM | Nc1nc(N2CCN(C[C@H](O)COCC3CCC3)CC2)nnc1-c1cccc(Cl)c1Cl [Compound 80, (2S)-1-{4-[5-Amino-6-(2,3-dichlorophenyl)-1,2,4-triazin-3-yl]piperazin-1-yl}-3-(cyclobutylmethoxy)propan-2-ol] |  | 
14 | > 300 µM | > 200 µM | CN1CCN(CCOCCNc2nnc(-c3cccc(Cl)c3Cl)c(N)n2)CC1 [Compound 169, 6-(2,3-dichlorophenyl)-N3-(2-(2-(4-methylpiperazin-1-yl)ethoxy)ethyl)-1,2,4-triazine-3,5-diamine] |  | 
15 | < 50 µM | 151 µM and 179 µM | CN(CCNC[C@H](O)C(F)(F)F)c1nnc(-c2cccc(Cl)c2Cl)c(N)n1 [Compound 147, (S)-3-((2-((5-amino-6-(2,3-dichlorophenyl)-1,2,4-triazin-3-yl)(methyl)amino)ethyl)amino)-1,1,1-trifluoropropan-2-ol] |  | 
16 | 100 µM | > 200 µM | COCCS(=O)(=O)CCOCCNc1nnc(-c2cccc(Cl)c2Cl)c(N)n1 [Compound 186, 6-(2,3-dichlorophenyl)-N3-(2-(2-((2-methoxyethyl)sulfonyl)ethoxy)ethyl)-1,2,4-triazine-3,5-diamine] |  | 
17 | > 300 µM | > 200 µM | Nc1nc(NC(CO)CO)nnc1-c1cccc(Cl)c1Cl [Compound 20, 2-((5-Amino-6-(2,3-dichlorophenyl)-1,2,4-triazin-3-yl)amino)propane-1,3-diol] |  | 
18 | 214 µM | > 200 µM | COCCNCCOCCNc1nnc(-c2cccc(Cl)c2Cl)c(N)n1 [Compound 173, 6-(2,3-dichlorophenyl)-N3-(2-(2-((2-methoxyethyl)amino)ethoxy)ethyl)-1,2,4-triazine-3,5-diamine] |  | 
19 | > 300 µM | > 200 µM | CN(CCN(C)c1nnc(-c2cccc(Cl)c2Cl)c(N)n1)C(=O)COCC(N)=O [Compound 192, 2-(2-amino-2-oxoethoxy)-N-(2-((5-amino-6-(2,3-dichlorophenyl)-1,2,4-triazin-3-yl)(methyl)amino)ethyl)-N-methylacetamide] |  | 
20 | 292 µM | > 200 µM | COC[C@@H](O)CN(C)CC1CN(c2nnc(-c3cccc(Cl)c3Cl)c(N)n2)C1 [Compound 160, (S)-1-(((1-(5-amino-6-(2,3-dichlorophenyl)-1,2,4-triazin-3-yl)azetidin-3-yl)methyl)(methyl)amino)-3-methoxypropan-2-ol] |  | 
21 | < 50 µM | > 200 µM | COCCOCCOCC(C)CNc1nnc(-c2cccc(Cl)c2Cl)c(N)n1 (stereo not drawn) [Compound 177, 6-(2,3-dichlorophenyl)-N3-(3-(2-(2-methoxyethoxy)ethoxy)-2-methylpropyl)-1,2,4-triazine-3,5-diamine] |  | 
22 |  |  | Nc1nc(N2CCN(CC(O)CO)C[C@H]2CO)nnc1-c1cccc(Cl)c1Cl (stereo partly drawn) [Compound 140, 3-((S)-4-(5-amino-6-(2,3-dichlorophenyl)-1,2,4-triazin-3-yl)-3-(hydroxymethyl)piperazin-1-yl)propane-1,2-diol] | > 300 µM | > 200 µM
23 | < 50 µM | 171 µM | Nc1nc(N2CCN(C[C@H](O)COCC3CC3)CC2)nnc1-c1cccc(Cl)c1Cl [Compound 83, (2S)-1-{4-[5-Amino-6-(2,3-dichlorophenyl)-1,2,4-triazin-3-yl]piperazin-1-yl}-3-(cyclopropylmethoxy)propan-2-ol] |  | 
24 | < 50 µM | > 200 µM | COCCOCCOCCN1C(C)CN(c2nnc(-c3cccc(Cl)c3Cl)c(N)n2)CC1C (stereo not drawn) [Compound 111, 3-N-(4-N-mPEG3-3,5-dimethylpiperazinyl) lamotrigine] |  | 
25 | 185 µM | > 200 µM | COCCOCCOCCN1CCC(Nc2nnc(-c3cccc(Cl)c3Cl)c(N)n2)CC1 [Compound 108, 3-N-(1-N-mPEG3-piperidin-4-yl) lamotrigine] |  | 
26 | > 150 µM | > 150 µM | Nc1nc(N2CCN[C@@H](CO)C2)nnc1-c1cccc(Cl)c1Cl [Compound 122, (R)-5-amino-3-N-[3-(hydroxymethyl)piperazin-1-yl] lamotrigine diHCl] |  | 
27 | < 50 µM | 149 µM | CN(CCNc1nnc(-c2cccc(Cl)c2Cl)c(N)n1)C[C@H](O)C(F)(F)F [Compound 148, (S)-3-((2-((5-amino-6-(2,3-dichlorophenyl)-1,2,4-triazin-3-yl)amino)ethyl)(methyl)amino)-1,1,1-trifluoropropan-2-ol] |  | 
28 | 194 µM | > 200 µM | COC[C@@H](O)CNC1(C)CCN(c2nnc(-c3cccc(Cl)c3Cl)c(N)n2)C1 (stereo partly drawn) [Compound 162, (2S)-1-((1-(5-amino-6-(2,3-dichlorophenyl)-1,2,4-triazin-3-yl)-3-methylpyrrolidin-3-yl)amino)-3-methoxypropan-2-ol] |  | 
29 | < 50 µM | > 200 µM | COCCOCCOCCN1CCN(c2nnc(-c3cc(F)cc(Cl)c3Cl)c(N)n2)CC1 [Compound 104, 3-N-(4′-N-mPEG3-piperazinyl) 5-fluoro lamotrigine] |  | 
30 | 298 µM | > 200 µM | COCCOCCOCC(COCCOCCOC)OCCNc1nnc(-c2cccc(Cl)c2Cl)c(N)n1 [Compound 180, 6-(2,3-dichlorophenyl)-N3-(10-((2-(2-methoxyethoxy)ethoxy)methyl)-2,5,8,11-tetraoxatridecan-13-yl)-1,2,4-triazine-3,5-diamine] |  | 

Row | Structure (SMILES) | IC50 [1] | IC50 [2] | IC50 [3] | IC50 (read-out: Tonic state IC50)
31 | Nc1nc(N2CCN(CCOC(F)(F)F)CC2)nnc1-c1cccc(Cl)c1Cl [Compound 88, 6-(2,3-dichlorophenyl)-3-(4-(2-(trifluoromethoxy)ethyl)piperazin-1-yl)-1,2,4-triazin-5-amine] | < 50 µM | 113 µM |  | 
32 | CC(C)(C)OCC(O)CN1CCN(c2nnc(-c3cccc(Cl)c3Cl)c(N)n2)[C@H](CO)C1 (stereo partly drawn) [Compound 139, 1-((S)-4-(5-amino-6-(2,3-dichlorophenyl)-1,2,4-triazin-3-yl)-3-(hydroxymethyl)piperazin-1-yl)-3-(tert-butoxy)propan-2-ol] | 103 µM | > 200 µM |  | 
33 | COCCOCCN(C)CCN(C)c1nnc(-c2cccc(Cl)c2Cl)c(N)n1 [Compound 193, 6-(2,3-dichlorophenyl)-N3-(2-((2-(2-methoxyethoxy)ethyl)(methyl)amino)ethyl)-N3-methyl-1,2,4-triazine-3,5-diamine] | < 50 µM | 62.6 µM |  | 

Source: patent publication US10189859B2, “Derivatives of 6-(2,3-dichlorophenyl)-1,2,4-triazin-5-amine” (Nektar Therapeutics, priority 2013, dated 2019)
